This note sets out measurements from PMC9442787, “A Modified Yeast Two-Hybrid Platform Enables Dynamic Control of Expression Intensities to Unmask Properties of Protein–Protein Interactions” (ACS Synthetic Biology, 2022).

One experiment addresses T1, SiGID1b1 (Solanum lycopersicum, UniProt A0A3Q7J108).
T1 construct: gene GID1b-1; receptor fused to GAL4 BD (pBD-pZ-FLAG), PROCERA fused to GAL4 AD (pACT-Lex), in yeast Y190; with DELLA protein GAI (PROCERA)
T1 sequence (A0A3Q7J108 1-345): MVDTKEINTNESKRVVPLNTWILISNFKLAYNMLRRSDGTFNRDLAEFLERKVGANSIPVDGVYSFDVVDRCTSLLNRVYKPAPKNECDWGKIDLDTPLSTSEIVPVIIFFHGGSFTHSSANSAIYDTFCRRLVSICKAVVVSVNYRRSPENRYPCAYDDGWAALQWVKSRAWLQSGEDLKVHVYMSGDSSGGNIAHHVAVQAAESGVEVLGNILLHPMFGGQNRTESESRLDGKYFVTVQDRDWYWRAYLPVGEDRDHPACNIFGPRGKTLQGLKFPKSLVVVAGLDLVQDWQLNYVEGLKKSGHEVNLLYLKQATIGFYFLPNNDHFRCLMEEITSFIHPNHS
T1 sequence (Q7Y1B6 1-588 partner): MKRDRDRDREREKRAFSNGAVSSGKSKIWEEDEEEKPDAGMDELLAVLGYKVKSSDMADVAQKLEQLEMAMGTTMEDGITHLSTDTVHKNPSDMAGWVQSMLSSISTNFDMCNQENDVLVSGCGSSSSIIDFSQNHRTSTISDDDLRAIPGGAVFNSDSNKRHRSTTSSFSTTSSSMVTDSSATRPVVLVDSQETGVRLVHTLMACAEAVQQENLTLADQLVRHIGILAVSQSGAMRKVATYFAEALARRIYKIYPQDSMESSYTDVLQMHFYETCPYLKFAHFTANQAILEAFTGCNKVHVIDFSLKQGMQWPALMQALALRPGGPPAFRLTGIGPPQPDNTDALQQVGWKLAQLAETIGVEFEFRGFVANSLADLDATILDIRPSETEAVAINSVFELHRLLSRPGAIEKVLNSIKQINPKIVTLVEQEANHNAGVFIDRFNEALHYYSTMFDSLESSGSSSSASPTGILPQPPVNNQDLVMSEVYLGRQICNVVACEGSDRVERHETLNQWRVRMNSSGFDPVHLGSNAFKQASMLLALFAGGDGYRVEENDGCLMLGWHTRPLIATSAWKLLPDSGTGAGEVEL
Description: adjustable yeast two-hybrid, mScarlet-I fluorescence. It counts as cell-based. The conditions noted are these: interaction with PROCERA; estradiol/progesterone-titrated expression; 30 °C.

The target in a further experiment is PYL7 (Arabidopsis thaliana, UniProt Q1ECF1). The conditions noted are these: interaction with PP2C (HAB1 or ABI1 not told); low inducer concentrations; 30 °C.
Chain of PYL7 (Q1ECF1 whole entry): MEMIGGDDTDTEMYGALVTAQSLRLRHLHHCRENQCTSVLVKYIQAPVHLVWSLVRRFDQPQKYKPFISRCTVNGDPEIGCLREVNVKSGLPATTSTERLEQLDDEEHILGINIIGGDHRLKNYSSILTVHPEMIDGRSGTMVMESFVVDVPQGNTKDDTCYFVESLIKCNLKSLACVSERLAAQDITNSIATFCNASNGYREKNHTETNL
Chain of PYL7 (Q9CAJ0 whole entry partner): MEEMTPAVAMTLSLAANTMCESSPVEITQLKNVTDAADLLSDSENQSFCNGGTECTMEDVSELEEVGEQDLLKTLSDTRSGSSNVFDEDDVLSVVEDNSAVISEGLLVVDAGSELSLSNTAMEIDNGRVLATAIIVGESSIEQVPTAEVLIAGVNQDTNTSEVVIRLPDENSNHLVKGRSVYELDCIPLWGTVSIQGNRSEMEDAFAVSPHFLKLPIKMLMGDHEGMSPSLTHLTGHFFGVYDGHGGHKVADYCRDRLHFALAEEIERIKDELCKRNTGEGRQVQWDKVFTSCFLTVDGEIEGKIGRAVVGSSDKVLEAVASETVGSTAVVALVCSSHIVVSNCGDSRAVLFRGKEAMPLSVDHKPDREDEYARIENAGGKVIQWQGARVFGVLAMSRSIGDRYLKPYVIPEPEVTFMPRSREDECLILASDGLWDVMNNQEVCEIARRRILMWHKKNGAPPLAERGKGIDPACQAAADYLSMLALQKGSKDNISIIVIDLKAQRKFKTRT

For `C=C1C[C@]23C[C@@]1(O)CC[C@H]2[C@@]12C=C[C@H](O)[C@@](C)(C(=O)O1)[C@H]2[C@@H]3C(=O)O` [GA3], on SiGID1b1, the “adjustable yeast two-hybrid, mScarlet-I fluorescence” value was “SiGID1b1 displayed full dependency on GA presence for interaction with SiPROCERA”. With `CC1=CC(=O)CC(C)(C)[C@@]1(O)/C=C/C(C)=C\C(=O)O` [abscisic acid], on PYL7, the “maximal ratio of signal with ABA to mock” value was 4.9.
